Source: PubChem BioAssay AID1394 (PCMD, 2008)
The source made the active and inactive calls.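 Rule for the calls: active = fitted EC50 above 0 with maximum enhancement above 35%; inactive = the rest.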

Molecular target: E3 ubiquitin-protein ligase Mdm2 (Homo sapiens) (UniProt Q00987)
Assay: 384-well cell-based luminescence, MDM2-luciferase reporter signal enhancement, concentration series, MDM2 ligase inhibitor project (AID 1394)
Conditions: cells, MDM2-luciferase autoubiquitination reporter, 2 h; for maximum enhancement: stronger effect = higher value

Chain of E3 ubiquitin-protein ligase Mdm2 (Homo sapiens) (Q00987 whole entry, looked up): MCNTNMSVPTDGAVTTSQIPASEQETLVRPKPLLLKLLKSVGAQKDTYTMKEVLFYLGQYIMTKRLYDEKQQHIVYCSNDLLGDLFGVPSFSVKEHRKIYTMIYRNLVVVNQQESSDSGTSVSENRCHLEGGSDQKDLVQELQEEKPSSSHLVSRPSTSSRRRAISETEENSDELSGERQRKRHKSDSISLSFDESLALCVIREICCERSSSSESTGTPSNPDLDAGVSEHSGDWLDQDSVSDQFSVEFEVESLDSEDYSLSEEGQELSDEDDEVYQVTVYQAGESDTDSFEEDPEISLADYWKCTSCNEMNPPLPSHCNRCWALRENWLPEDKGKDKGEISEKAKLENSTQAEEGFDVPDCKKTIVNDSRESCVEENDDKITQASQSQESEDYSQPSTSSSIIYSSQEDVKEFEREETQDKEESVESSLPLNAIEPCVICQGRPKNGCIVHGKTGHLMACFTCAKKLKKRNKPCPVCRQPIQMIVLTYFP

Cc1ccc(/C=C2/NC(=O)N(Cc3ccc(Br)cc3)C2=O)o1
maximum enhancement: inactive

CCCCC(=O)/C=C/n1c(=S)oc2ccccc21
maximum enhancement: inactive

COc1ccc(N2C(=S)N=C(Nc3ccccc3)C23CCCCC3)cc1
maximum enhancement: inactive

O=C(CN1CCCCC1)NC(=O)NCc1ccccc1
maximum enhancement: inactive

O=C(c1cn(-c2ccccc2)nc1-c1cccs1)N1CCOCC1
maximum enhancement: inactive

O=C(O)CCc1ccc(-c2ccc(Br)cc2)n1CC(=O)O
maximum enhancement: inactive

Cc1[nH]c2ccc(Cl)cc2c(=O)c1CN1CCCC1
maximum enhancement: inactive

CCN(CC)Cc1cc(C(=O)O)c(C)o1
maximum enhancement: inactive

CC(=O)Cc1nsc(Nc2ccc(C)cc2)n1
maximum enhancement: inactive

CCc1cc2c(=O)c(-c3nc4ccccc4n3C)c(CCCC(=O)O)oc2cc1OC(=O)C(C)(C)C
maximum enhancement: inactive

CCn1cc(C(=O)NCc2ccccc2OC)c(=O)c2cc(S(=O)(=O)N(C)C)ccc21
maximum enhancement: inactive

CCCCS(=O)(=O)/C=C\C=C/S(=O)(=O)CCCC
maximum enhancement: inactive

C/C(=N\NC(N)=S)c1cccnc1
maximum enhancement: inactive

COc1ccc(NC(=O)/C(C#N)=C\c2ccc(OCc3ccc(C(=O)O)cc3)c(OC)c2)cc1
maximum enhancement: inactive

O=C1CC(c2cccc(Cl)c2)CC(O)=C1C=NC1CCCC1 (centres undefined)
EC50: inactive

O=S1(=O)C=C(Sc2nc3ccccc3s2)c2ccccc21
maximum enhancement: inactive

Cn1c(=O)cc(OCC(=O)NCc2cccs2)c2ccccc21
maximum enhancement: inactive

Fc1cccc(Cl)c1/C=N/n1c(-c2cccnc2)n[nH]c1=S
maximum enhancement: inactive

Cc1ccc(N2C(=O)NC(=O)/C(=C\C=C\c3ccco3)C2=O)cc1C
maximum enhancement: inactive

N=C1C(c2nc3ccccc3[nH]2)=C(O)CN1c1ccccc1
maximum enhancement: inactive

COc1cc(/C=C2/C(=N)N3OC(C)=CC3=NC2=O)ccc1OC(=O)c1ccco1
maximum enhancement: inactive

Cn1c(=NC(=O)c2ccc3c(c2)OCCO3)sc2cc(S(C)(=O)=O)ccc21
maximum enhancement: inactive

CCN(C(=O)CSc1nc2ccccc2c(=O)n1-c1cccc(C)c1)C1CCS(=O)(=O)C1 (centres undefined)
maximum enhancement: inactive

CC1=NN(c2ccc(C)cc2)C(=O)/C1=C\C=C\c1ccccc1
maximum enhancement: inactive

Cc1ccc(Nc2nnc(SCC3CCCCO3)s2)cc1 (centres undefined)
maximum enhancement: inactive

N#Cc1nc(Cc2ccccc2)oc1NCCN1CCOCC1
maximum enhancement: inactive

Cc1cc(C)cc(OCC(=O)NNC(=O)CCN2C(=O)c3ccccc3C2=O)c1
maximum enhancement: inactive

O=C(CNCc1ccc(Cl)cc1)Nc1cccc(C(=O)O)c1
maximum enhancement: inactive

O=C(COc1ccccc1)Nc1ncccn1
maximum enhancement: inactive

COc1ccc(OC(C)C(=O)Nc2ccccc2C(F)(F)F)cc1 (centres undefined)
maximum enhancement: inactive

COC(Cn1cc(C)c(=O)[nH]c1=O)OC
maximum enhancement: inactive

C=C1CCN(C(C(=O)OC)C(C)C)S(=O)(=O)c2ccccc21 (centres undefined)
maximum enhancement: inactive

COc1ccccc1-c1nnc(Nc2nc3c(OC)cccc3s2)o1
maximum enhancement: inactive

Cc1cc(=O)n2[nH]c(N3C(=O)CCC3=O)nc2n1
maximum enhancement: inactive
